Here are results for eleven molecules from patent US6353016B1, “Potassium channel activators” (Nippon Shinyaku Co., Ltd., priority 1998, dated 2002).

Assay [1] relates to isolated rat aorta specimen. Briefly: Effect on KCl-induced contraction of the isolated rat aorta specimen. In kind it is cell-based. Particulars: papaverine (100 μM) = 100% relaxation. The procedure:
Effect on KCl-induced contraction of the isolated rat aorta specimen
In the present experiment, potassium channel activating activity was evaluated by comparing the pIC50 values representing the relaxing effects of the test drug on the 20 mM KCl-induced contraction and 100 mM KCl-contraction. According to Br. J. Pharmacol., 88, 103-111 (1986) referred to above, potassium channel activators produce greater relaxing effects on 20 mM KCl-induced contraction than on 100 mM KCl-induced contraction.
Male 7-13-week-old SD rats (body weights 240-480 g) were used in groups of 4-6. After the animal was bled to death under ether anesthesia, the throacic aorta was isolated and dissected into a spiral specimen about 2 mm wide×about 20 mm long. Each specimen was suspended in a 10 ml Magnus bath containing Krebs-Henseleit solution (KH solution) aerated with 95% O2+5% CO2 at 37° C. A tension load of 1 g was applied and with the KH solution exchanged every 20 minutes, the specimen was equilibrated for about 90 minutes. Then, the experiment was commenced. The change in tension of the specimen was recorded on a recticorder through an isometric tension transducer. The specimen was caused to contract by replacing the KH solution in the Magnus bath with 20 mM or 100 mM KCl-containing KH solution (NaCl in KH solution was replaced with an equimolar amount of KCl) and when the contractile response had reached plateau, the test drug was cumulatively applied to evaluate the relaxing effect.
Each result was expressed in the average of the relaxation ratio obtained in the presence of the test drug, with the maximum relaxation found with papaverine (100 μM) being taken as the 100% relaxation response of the specimen.

Assay [2] concerns blood pressure in anesthetized rats. Briefly: Effect on blood pressure in anesthetized rats. Particulars: 100 mg/kg intraduodenally; urethane-anesthetized female SD rats; % change at time of maximal action, up to 3 hours. In kind it is in vivo, rat. The procedure:
Effect on blood pressure in anesthetized rats
Female 10-13-week-old SD rats (body weights 180-300 g) fasted from the previous day were used in groups of 2-4. The animal was placed in supine position under urethane anesthesia and the femoral artery was cannulated for blood pressure measurement. The blood pressure was recorded on a recorder through the cannula and a pressure transducer. When the blood pressure had stabilized, the test drug was administered intraduodenally and the effect on blood pressure was monitored up to 3 hours after administration.
Each value is expressed as the average of % changes at the time of maximal action.

For assay [3], the system named is isolated guinea-pig trachea specimen. Briefly: Effect on the KCl-induced contraction of the isolated guinea-pig trachea specimen. In kind it is cell-based. The procedure: Effect on the KCl-induced contraction of the isolated guinea-pig trachea specimen
As in Experimental Example 1, potassium channel activating activity was evaluated by comparing the relaxing effects of the test drug on 20 mM KCl-induced contraction and 100 mM KCl-induced contraction.
Male 5-13-week-old Hartley guinea pigs (body weights 400-730 g) were used in groups of 2-4. After the animal was bled to death under ether anesthesia, the trachea was isolated and 4 tracheal strips were connected to prepare a specimen in accordance with the method of Takagi et al. (Chem. Pharm. Bull., 6, 716-720 (1958)). The experiment was performed in the same manner as described in Experimental Example 1.

Turning to `Cc1c(-c2ccccc2F)[nH]c(N)c1C#N` [Compound 1, 2-Amino-3-cyano-5-(2-fluorophenyl)-4-methylpyrrole], in assay [1] (10 μM), the “Relaxation effect (%) 20 mM KCl-induced contraction” value is 82% and the “Relaxation effect (%) 100 mM KCl-induced contraction” value is on record as 28%.
For `Cc1c(-c2ccccc2)[nH]c(N)c1C#N` [Compound 2, 2-Amino-3-cyano-4-methyl-5-phenylpyrrole], in assay [1] (10 μM), the “Relaxation effect (%) 20 mM KCl-induced contraction” value worked out at 78% and the “Relaxation effect (%) 100 mM KCl-induced contraction” value is listed as 17%. In assay [2], the “Hypotensive effect (%)” value was found to be 25.9%.
In the case of `Cc1c(-c2cccc(Cl)c2)[nH]c(N)c1C#N` [Compound 3, 2-Amino-5-(3-chlorophenyl)-3-cyano-4-methylpyrrole], in assay [1] (1 μM), the “Relaxation effect (%) 20 mM KCl-induced contraction” value is 45% and the “Relaxation effect (%) 100 mM KCl-induced contraction” value came out at 6%. Also, the “Hypotensive effect (%)” value in assay [2] stood at 14.1%.
For `Cc1c(-c2ccco2)[nH]c(N)c1C#N` [Compound 4, 2-Amino-3-cyano-5-(2-furyl)-4-methylpyrrole], in assay [1] (10 μM), the “Relaxation effect (%) 20 mM KCl-induced contraction” value was 64% and the “Relaxation effect (%) 100 mM KCl-induced contraction” value is 12%. Besides, the “Hypotensive effect (%)” value in assay [2] was determined as 25.6%.
For `N#Cc1cc(-c2ccc3c(c2)OCO3)[nH]c1N` [Compound 5, 2-Amino-3-cyano-5-(3,4-methylenedioxyphenyl)pyrrole], in assay [1] (10 μM), the “Relaxation effect (%) 20 mM KCl-induced contraction” value was determined as 73% and the “Relaxation effect (%) 100 mM KCl-induced contraction” value worked out at 18%. Also, in assay [3] (10 μM), the “Relaxation effect (%) 20 mM KCl-induced contraction” value stood at 58% and the “Relaxation effect (%) 100 mM KCl-induced contraction” value is recorded as −7%.
Regarding `N#Cc1cc(-c2ccc(F)cc2F)[nH]c1N` [Compound 6, 2-Amino-3-cyano-5-(2,4-difluorophenyl)pyrrole], in assay [1] (10 μM), the “Relaxation effect (%) 20 mM KCl-induced contraction” value was 92% and the “Relaxation effect (%) 100 mM KCl-induced contraction” value is reported as 24%.
With `Cc1[nH]c(-c2cccc(Cl)c2)cc1C#N` [Compound 7, 5-(3-Chlorophenyl)-3-cyano-2-methylpyrrole], in assay [3] (3 μM), the “Relaxation effect (%) 20 mM KCl-induced contraction” value came to 64% and the “Relaxation effect (%) 100 mM KCl-induced contraction” value came out at 31%.
On the same counts, the results for `Cc1c(-c2cccc([N+](=O)[O-])c2)[nH]c(N)c1C#N` [Compound 8, 2-Amino-3-cyano-4-methyl-5-(3-nitrophenyl)pyrrole] are 58% and −2%.
As for `Cc1[nH]c(-c2ccccc2)c(C)c1C#N` [Compound 9, 3-Cyano-2,4-dimethyl-5-phenylpyrrole], in assay [3] (10 μM), the “Relaxation effect (%) 20 mM KCl-induced contraction” value was found to be 79% and the “Relaxation effect (%) 100 mM KCl-induced contraction” value was 39%.
In the case of `CCOc1cccc(-c2cc(C#N)c(N3CCCC3)[nH]2)c1` [Compound 10, 3-Cyano-5-(3-ethoxyphenyl)-2-pyrrolidinopyrrole], in assay [3] (3 μM), the “Relaxation effect (%) 20 mM KCl-induced contraction” value stood at 37% and the “Relaxation effect (%) 100 mM KCl-induced contraction” value was −15%.
For `N#Cc1cc(-c2ccc3c(c2)OCO3)[nH]c1N1CCCC1` [Compound 11, 3-Cyano-5-(3,4-methylenedioxyphenyl)-2-pyrrolidinopyrrole], in assay [3] (10 μM), the “Relaxation effect (%) 20 mM KCl-induced contraction” value is on record as 37% and the “Relaxation effect (%) 100 mM KCl-induced contraction” value worked out at 4%.
